Results reported in US10272117B2, “Methods of using an activator of cereblon for neural cell expansion and the treatment of central nervous system disorders” (Celgene Corporation, priority 2014, dated 2019).

Test system: zebrafish embryos
Assay: Quantitative PCR of gene expression in zebrafish embryos
Type: in vivo
Procedure: BRD7-knockdown zebrafish embryos show similar phenotypes as CRBN-overexpressing zebrafish embryos. For example, expression of HuC in untreated, CRBN-overexpressing, and BRD7-knockdown zebrafish embryos was compared by quantitative PCR. Quantitative PCR was performed as follows: 1.7 μg of random […] and oligo-dT primed cDNA synthesized by ReverTra Ace qPCR RT Kit (TOYOBO, Japan) (as template) were used for reverse transcription by THUNDERBIRD™ SYBR® qPCR Mix (Toyobo, Japan). 0.25 mM of each forward and reverse primers were used in the reaction, wherein the sequence of the forward primer was 5′-[…]-3′ (SEQ ID NO: 9); and the sequence of the reverse primer was 5′-[…]-3′ (SEQ ID NO: 10).
Expression of Pou5f1 (Oct3/4), c-Myc, Sox2, and Nanog in zebrafish embryos was analyzed by quantitative PCR. Quantitative RT (qRT)-PCR was performed as follows: 1.7 μg of random hexamer and oligo-dT primed cDNA synthesized by ReverTra Ace qPCR RT Kit (TOYOBO, Japan) (as template) were used for reverse transcription by THUNDERBIRD™ SYBR® qPCR Mix (Toyobo, Japan). 0.25 mM of each forward and reverse primers was used in the reaction. The sequences of primers for c-Myc are as follows: forward primer is 5′-[…]-3′ (SEQ ID NO: 15), and reverse primer is 5′-GTAAAACGACGGCCAGT-3′ (SEQ ID NO: 16). The sequences of primers for sox2 are as follows: forward primer is 5′-ACCCCGGAGGAAAACCAA-3′ (SEQ ID NO: 17), and reverse primer is 5′-CCCGGCAGGGTGTACTTG-3′ (SEQ ID NO: 18). The sequences of primers for nanog are as follows: forward primer is 5′-TACCCAACACACCAGCTTC-3′ (SEQ ID NO: 19), and reverse primer is 5′-GAAGGGTGTTTTTGGAGGA-3′ (SEQ ID NO: 20).
Expression of a pool of three genes, Ascl1, Brn2 (Pou3f2), and Myt1la, is sufficient to directly reprogram embryonic and postnatal fibroblasts into functional neurons. See, e.g., Vierbuchen and Wernig, Nat Biotechnol. 29:892-907 […]. […] Primer sequences for amplification for Ascl1a are as follows: forward primer is 5′-ACGAGCATGACGCCGTA-3′ (SEQ ID NO: 21), and reverse primer is 5′-[…]-3′ (SEQ ID NO: 22). Primer sequences for amplification for Pou3f2b are as follows: forward primer is 5′-[…]-3′ (SEQ ID NO: 23), and reverse primer is 5′-[…]-3′(SEQ ID NO: 24). Primer sequences for amplification for Myt1la are as follows: forward primer is 5′-[…]-3′ (SEQ ID NO: 25), and reverse primer is 5′-[…]-3′ (SEQ ID NO: 26). FIG. […]
Notch3 and Neuropilin2b (Nrp2b) are required for cell proliferation progression. Notch3 regulates the timing of neural differentiation from undifferentiated or immature cells, and Nrp2b regulates cell proliferation and remodeling in mesenchymal stem cells by cooperating with PDGF (platelet-derived growth factor). Therefore, expression of Notch3 and Neuropilin 2b (Nrp2b) was analyzed in untreated and CRBN-overexpressing zebrafish embryos by quantitative PCR. The primers used for Notch3 are as follows: the sequence for forward primer is 5′-[…]-3′ (SEQ ID NO: 27), and the sequence for reverse primer is 5′-[…]-3′ (SEQ ID NO: 28). The primers used for Nrp2b are as follows: the sequence of forward primer is 5′-[…]-3′ (SEQ ID NO: 29), and the sequence of reverse primer is 5′-[…]-3′ (SEQ ID NO: 30). FIG. 29A is a histogram showing the mRNA level of Notch3 and Nrp2b in untreated, CRBN-overexpressing, and thalidomide-treated zebrafish embryos at 11 hpf by quantitative PCR. As shown, expression of Notch3 in the CRBN-overexpressing embryos increased to 1.8-fold of the level in the untreated embryos at 11 hpf, and expression of Nrp2b in the CRBN-overexpressing embryos increased to 2.7-fold of the level in the untreated embryos at the same stage.
Elval3 (Huc) is a neural progenitor marker. Expression of Elavl3 (Huc) was also analyzed by quantitative PCR and in situ hybridization. […]

[1] = 11 hpf, compared to untreated embryos

Row | Substance | expression of Nanog (change) (11 hpf, FIG. 13) | expression of Pou5f1 (change) (11 hpf, FIG. 13) | expression of Zic3 (change) (11 hpf, FIG. 13) | Nanog expression [1] [fold] | Pou5f1 expression [1] [fold] | Sox2 expression [1] [fold] | Zic3 expression [1] [fold] | expression of Ascl1a (change) (23 hpf) | expression of Pou3f2b (change) (23 hpf) | expression of Ascl1 (change) (11 hpf) | expression of Brn2 (Pou3f2b) (change) (11 hpf) | expression of Myt1l (change) (11 hpf) | HuC (Elavl3) expression level (11 hpf, fold of level in untreated embryos) [fold] | expression of Ascl1 (change) (28 hpf) | expression of Myt1la (change) (28 hpf) | expression of Pou3f3a (change) (28 hpf) | expression of Nanog (change) (28 hpf) | expression of Pou3f2b (change) (28 hpf) | expression of Sox2 (change) (28 hpf) | expression of c-Myc (change) (28 hpf)
1 | 5′-AGAGCTGTAGCTGGTTCCCCATTTC-3′ (all phosphorodiamidate morpholino (PMO)) [CRBN-knockdown, 25-mer antisense morpholino oligonucleotide (AMO) used for the CRBN gene knockdown, reference compound] | decreased | decreased | decreased | 0.8 | 0.8 | 0.7 | 0.8 | decreased | decreased |  |  |  |  |  |  |  |  |  |  | 
2 | 5′-TGTGTTTCTTGTGCTTTTTGCCCAT-3′ (all phosphorodiamidate morpholino (PMO)) [BRD7-knockdown, 25-mer antisense morpholino oligonucleotide (AMO) used for the BRD7 gene knockdown] | increased | significantly increased | increased |  |  |  |  |  |  | increased | increased | increased | 1.7 | increased | increased | increased |  |  |  | 
3 | 5′-TTCCTGTGCCTCCTCAGTCTCCATC-3′ (all phosphorodiamidate morpholino (PMO)) [Ikaros-knockdown, 25-mer antisense morpholino oligonucleotide (AMO) used for the Ikaros gene knockdown] |  |  |  |  |  |  |  | increased | increased |  |  |  |  | increased | increased | increased | activated | increased | activated | activated
